Square brackets hold non-standard residues; d marks the D form. Peptide text beside a SMILES is read from it. * marks the point of attachment. FITC = O=C1OC2(c3ccc(O)cc3Oc3cc(O)ccc32)c2ccc(NC(=S)*)cc21; Phe(F5) = N[C@@H](Cc1c(F)c(F)c(F)c(F)c1F)C(=O)O; Phe(2-Ph) = N[C@@H](Cc1ccccc1-c1ccccc1)C(=O)O; Phe(3-Cl) = N[C@@H](Cc1cccc(Cl)c1)C(=O)O; 1Nal = N[C@@H](Cc1cccc2ccccc12)C(=O)O; NMeF = CN[C@@H](Cc1ccccc1)C(=O)O; Cit = NC(=O)NCCC[C@H](N)C(=O)O; NMeA = CN[C@@H](C)C(=O)O; Nva = CCC[C@H](N)C(=O)O; Abu = CC[C@H](N)C(=O)O

The target of the first assay is T1, PRMT5-MEP50 (Homo sapiens, UniProt O14744).
T1 construct: The compounds were tested by means of FP with the full-length PRMT5-MEP50 complex; made in house
T1 sequence (O14744 whole entry): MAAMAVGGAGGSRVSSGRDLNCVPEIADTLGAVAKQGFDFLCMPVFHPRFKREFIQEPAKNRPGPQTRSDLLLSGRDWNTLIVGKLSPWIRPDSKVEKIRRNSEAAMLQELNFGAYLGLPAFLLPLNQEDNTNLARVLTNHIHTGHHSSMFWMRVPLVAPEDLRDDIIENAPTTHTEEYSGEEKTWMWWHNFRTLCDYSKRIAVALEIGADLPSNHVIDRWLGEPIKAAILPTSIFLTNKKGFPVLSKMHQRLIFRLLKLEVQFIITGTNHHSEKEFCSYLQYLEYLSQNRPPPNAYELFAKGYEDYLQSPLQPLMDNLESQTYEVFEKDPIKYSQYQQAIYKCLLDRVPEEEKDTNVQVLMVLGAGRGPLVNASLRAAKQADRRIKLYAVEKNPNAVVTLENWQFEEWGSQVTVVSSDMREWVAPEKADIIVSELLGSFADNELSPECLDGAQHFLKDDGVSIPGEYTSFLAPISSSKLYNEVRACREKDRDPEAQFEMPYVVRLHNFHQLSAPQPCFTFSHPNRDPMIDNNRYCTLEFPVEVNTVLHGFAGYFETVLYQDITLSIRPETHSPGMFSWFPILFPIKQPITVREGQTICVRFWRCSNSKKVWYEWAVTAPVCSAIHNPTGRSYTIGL
T1 sequence (Q9BQA1 whole entry partner): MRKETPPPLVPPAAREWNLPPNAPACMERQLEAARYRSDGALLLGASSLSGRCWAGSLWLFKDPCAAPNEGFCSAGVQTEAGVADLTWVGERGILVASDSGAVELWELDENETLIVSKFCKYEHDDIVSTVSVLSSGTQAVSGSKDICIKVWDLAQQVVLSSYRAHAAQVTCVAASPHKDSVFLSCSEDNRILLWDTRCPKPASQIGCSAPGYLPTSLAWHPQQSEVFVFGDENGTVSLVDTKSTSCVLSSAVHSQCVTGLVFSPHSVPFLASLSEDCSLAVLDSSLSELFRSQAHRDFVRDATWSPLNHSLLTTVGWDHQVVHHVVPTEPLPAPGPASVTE
The experiment in a line: Direct binding fluorescence polarization (FP) assay of FITC-labeled peptides. Particulars: FITC-labeled peptide 1 nM, PRMT5-MEP50 titrated, read-out: KD. (Fluorescence polarisation rises when a labelled molecule tumbles more slowly, as on binding a larger partner.)
Method: The assay was performed in a buffer of 50 mM 4-(2-hydroxyethyl)-1-piperazineethanesulfonic acid (HEPES), 250 mM NaCl, 1 mM tris(2-carboxyethyl)phosphine (TCEP), and 0.01% (v/v) Tween 20, pH 8.0, in black, 384-well plates with a total volume of 10 μL per well. […] The plates were incubated at room temperature for 1 to 2 h and analyzed on a plate reader using 485 nm excitation and 535 nm emission wavelength. The assay was performed in triplicate.
`CC(=O)NC1CCCCC[C@@H](C(=O)N[C@@H](CC(=O)O)C(=O)N[C@@H](C)C(=O)N[C@@H](CC(C(=O)O)C(=O)O)C(=O)N[C@@H](CCCCNC(=S)Nc2ccc3c(c2)C(=O)OC32c3ccc(O)cc3Oc3cc(O)ccc32)C(N)=O)NC(=O)[C@H](Cc2ccc([N+](=O)[O-])cc2)NC(=O)[C@H](CCC(N)=O)NC1=O` (stereo in doubt) [Compound 51]: the equilibrium dissociation constant (Kd) is over 2000 nM.

Consider `CC(=O)N[C@H](C(=O)N1CCC[C@H]1C(=O)NC1CC=CCC[C@@H](C(=O)N[C@@H](CC(=O)O)C(=O)N[C@@H](C)C(=O)N[C@@H](CC(=O)O)C(=O)N[C@@H](CCCCNC(=S)Nc2ccc3c(c2)C(=O)OC32c3ccc(O)cc3Oc3cc(O)ccc32)C(N)=O)NC(=O)[C@H](Cc2ccccc2)NC(=O)[C@H](CCC(N)=O)NC1=O)C(C)C` (stereo partly drawn) [Compound 18], for which the Kd stood at 352 ± 49 nM.

The assay is the same for the next values; noted with them: supplementary CSV, read-out: PRMT5-MEP50 Kd.
For `CC(=O)N[C@H](C(=O)N1CCC[C@H]1C(=O)NCC(=O)N[C@@H](CCCNC(N)=O)C(=O)N[C@@H](Cc1ccccc1)C(=O)N[C@@H](CC(=O)O)C(=O)N[C@@H](CC(=O)O)C(=O)N[C@@H](C)C(=O)N[C@@H](CC(=O)O)C(=O)N[C@@H](CCCCNC(=S)Nc1ccc2c(c1)C(=O)OC21c2ccc(O)cc2Oc2cc(O)ccc21)C(N)=O)C(C)C` [Compound S11] (Ac-VPG[Cit]FDDADK(FITC)-NH2), the equilibrium dissociation constant (Kd) was over 1000 nM.

On to `CC(C)[C@H](NC(=O)[C@H](CCCNC(=N)N)NC(=O)[C@H](CO)NC(=O)COCCOCCNC(=S)Nc1ccc2c(c1)C(=O)OC21c2ccc(O)cc2Oc2cc(O)ccc21)C(=O)N[C@H](C(=O)N1CCC[C@H]1C(=O)N[C@@H]1CCNC(=O)CC[C@H](C(=O)N[C@@H](CC(=O)O)C(=O)N[C@@H](C)C(=O)N[C@@H](CC(=O)O)C(N)=O)NC(=O)[C@H](Cc2ccccc2)NC(=O)[C@H](CCC(N)=O)NC1=O)C(C)C` [Compound 12], for which the equilibrium dissociation constant (Kd) was over 2000 nM.

As to `CC(=O)N[C@H](C(=O)N1CCC[C@H]1C(=O)NCC(=O)N[C@@H](CCC(N)=O)C(=O)N[C@@H](Cc1ccccc1)C(=O)N[C@@H](CC(=O)O)C(=O)N[C@@H](CC(=O)O)C(=O)N[C@@H](CO)C(=O)N[C@@H](CC(=O)O)C(=O)N[C@@H](CCCCNC(=S)Nc1ccc2c(c1)C(=O)OC21c2ccc(O)cc2Oc2cc(O)ccc21)C(N)=O)C(C)C` [Compound S31] (Ac-VPGQFDDSDK(FITC)-NH2), the Kd was over 1000 nM.

Turning to `CC(C)[C@H](NC(=O)[C@H](CCCNC(=N)N)NC(=O)[C@H](CO)NC(=O)COCCOCCNC(=S)Nc1ccc2c(c1)C(=O)OC21c2ccc(O)cc2Oc2cc(O)ccc21)C(=O)N[C@H](C(=O)N1CCC[C@H]1C(=O)N[C@@H]1CCNC(=O)C[C@H](C(=O)N[C@@H](CC(=O)O)C(=O)N[C@@H](C)C(=O)N[C@@H](CC(=O)O)C(N)=O)NC(=O)[C@H](Cc2ccccc2)NC(=O)[C@H](CCC(N)=O)NC1=O)C(C)C` [Compound 11], the dissociation constant (Kd) was over 2000 nM.

As to `CC(=O)N[C@H](C(=O)N1CCC[C@H]1C(=O)NCC(=O)N[C@@H](CCC(N)=O)C(=O)N[C@@H](Cc1cccc2ccccc12)C(=O)N[C@@H](CC(=O)O)C(=O)N[C@@H](CC(=O)O)C(=O)N[C@@H](C)C(=O)N[C@@H](CC(=O)O)C(=O)N[C@@H](CCCCNC(=S)Nc1ccc2c(c1)C(=O)OC21c2ccc(O)cc2Oc2cc(O)ccc21)C(N)=O)C(C)C` [Compound S25] (Ac-VPGQ[1Nal]DDADK(FITC)-NH2), the dissociation constant (Kd) is over 1000 nM.

As to `CC(=O)N[C@H](C(=O)N1CCC[C@H]1C(=O)NCC(=O)N[C@@H](CCC(N)=O)C(=O)N[C@@H](Cc1c(F)c(F)c(F)c(F)c1F)C(=O)N[C@@H](CC(=O)O)C(=O)N[C@@H](CC(=O)O)C(=O)N[C@@H](C)C(=O)N[C@@H](CC(=O)O)C(=O)N[C@@H](CCCCNC(=S)Nc1ccc2c(c1)C(=O)OC21c2ccc(O)cc2Oc2cc(O)ccc21)C(N)=O)C(C)C` [Compound S13] (Ac-VPGQ[Phe(F5)]DDADK(FITC)-NH2), the Kd was over 1000 nM.

With `CC(=O)N[C@H](C(=O)N1CCC[C@H]1C(=O)NCC(=O)N[C@@H](CCC(N)=O)C(=O)N[C@@H](Cc1ccccc1)C(=O)N[C@@H](CC(=O)O)C(=O)N[C@@H](CC(=O)O)C(=O)N(C)[C@@H](C)C(=O)N[C@@H](CC(=O)O)C(=O)N[C@@H](CCCCNC(=S)Nc1ccc2c(c1)C(=O)OC21c2ccc(O)cc2Oc2cc(O)ccc21)C(N)=O)C(C)C` [Compound 45, Ac-VPGQFDD-(N-Me)A-DK(Fitc)-NH2] (Ac-VPGQFDD[NMeA]DK(FITC)-NH2), the dissociation constant Kd was over 2000 nM.

On to `CC(=O)N[C@H](C(=O)N1CCC[C@H]1C(=O)NC1CC=CC[C@@H](C(=O)N[C@@H](CC(=O)O)C(=O)N[C@@H](C)C(=O)N[C@@H](CC(=O)O)C(=O)N[C@@H](CCCCNC(=S)Nc2ccc3c(c2)C(=O)OC32c3ccc(O)cc3Oc3cc(O)ccc32)C(N)=O)NC(=O)[C@H](Cc2ccccc2)NC(=O)[C@H](CCC(N)=O)NC1=O)C(C)C` (stereo in doubt) [Compound 17], for which the dissociation constant (Kd) came to 452 ± 1 nM.

As for `CC(C)[C@H](NC(=O)[C@H](CCCNC(=N)N)NC(=O)[C@H](CO)NC(=O)COCCOCCNC(=S)Nc1ccc2c(c1)C(=O)OC21c2ccc(O)cc2Oc2cc(O)ccc21)C(=O)N[C@H](C(=O)N1CCC[C@H]1C(=O)NC1CNC(=O)C[C@@H](C(=O)N[C@@H](CC(=O)O)C(=O)N[C@@H](C)C(=O)N[C@@H](CC(=O)O)C(N)=O)NC(=O)[C@H](Cc2ccccc2)NC(=O)[C@H](CCC(N)=O)NC1=O)C(C)C` (stereo in doubt) [Compound 5], the equilibrium dissociation constant (Kd) is over 2000 nM.

Regarding `CC(=O)N[C@H](C(=O)N1CCC[C@H]1C(=O)NCC(=O)N[C@@H](CC(N)=O)C(=O)N[C@@H](Cc1ccccc1)C(=O)N[C@@H](CC(=O)O)C(=O)N[C@@H](CC(=O)O)C(=O)N[C@@H](C)C(=O)N[C@@H](CC(=O)O)C(=O)N[C@@H](CCCCNC(=S)Nc1ccc2c(c1)C(=O)OC21c2ccc(O)cc2Oc2cc(O)ccc21)C(N)=O)C(C)C` [Compound S8] (Ac-VPGNFDDADK(FITC)-NH2), the Kd was over 1000 nM.

Turning to `CC(=O)N[C@H](C(=O)N1CCC[C@H]1C(=O)NCC(=O)N[C@@H](CCC(N)=O)C(=O)N[C@@H](Cc1ccccc1-c1ccccc1)C(=O)N[C@@H](CC(=O)O)C(=O)N[C@@H](CC(=O)O)C(=O)N[C@@H](C)C(=O)N[C@@H](CC(=O)O)C(=O)N[C@@H](CCCCNC(=S)Nc1ccc2c(c1)C(=O)OC21c2ccc(O)cc2Oc2cc(O)ccc21)C(N)=O)C(C)C` [Compound S22] (Ac-VPGQ[Phe(2-Ph)]DDADK(FITC)-NH2), the Kd was over 1000 nM.

On to `CC(=O)N[C@@H](Cc1c[nH]c2ccccc12)C(=O)N1CCC[C@H]1C(=O)NCC(=O)N[C@@H](CCC(N)=O)C(=O)N[C@@H](Cc1ccccc1)C(=O)N[C@@H](CC(=O)O)C(=O)N[C@@H](CC(=O)O)C(=O)N[C@@H](C)C(=O)N[C@@H](CC(=O)O)C(=O)N[C@@H](CCCCNC(=S)Nc1ccc2c(c1)C(=O)OC21c2ccc(O)cc2Oc2cc(O)ccc21)C(N)=O` [Compound S5] (Ac-WPGQFDDADK(FITC)-NH2), for which the Kd is over 1000 nM.

Turning to `CC(C)[C@H](NC(=O)[C@H](CCCNC(=N)N)NC(=O)[C@H](CO)NC(=O)COCCOCCNC(=S)Nc1ccc2c(c1)C(=O)OC21c2ccc(O)cc2Oc2cc(O)ccc21)C(=O)N[C@H](C(=O)N1CCC[C@H]1C(=O)NC1CCNC(=O)CC[C@@H](C(=O)N[C@@H](CC(=O)O)C(=O)N[C@@H](C)C(=O)N[C@@H](CC(=O)O)C(N)=O)NC(=O)[C@H](Cc2ccccc2)NC(=O)[C@H](CCC(N)=O)NC1=O)C(C)C` (stereo in doubt) [Compound 8], the Kd was over 2000 nM.

`CC(=O)N[C@H](C(=O)N1CCC[C@H]1C(=O)NCC(=O)N[C@@H](CCC(N)=O)C(=O)N[C@@H](Cc1cccc(Cl)c1)C(=O)N[C@@H](CC(=O)O)C(=O)N[C@@H](CC(=O)O)C(=O)N[C@@H](C)C(=O)N[C@@H](CC(=O)O)C(=O)N[C@@H](CCCCNC(=S)Nc1ccc2c(c1)C(=O)OC21c2ccc(O)cc2Oc2cc(O)ccc21)C(N)=O)C(C)C` [Compound S15] (Ac-VPGQ[Phe(3-Cl)]DDADK(FITC)-NH2): the Kd was over 1000 nM.

As for `CC[C@H](NC(=O)[C@H](CC(=O)O)NC(=O)[C@H](CC(=O)O)NC(=O)[C@H](Cc1ccccc1)NC(=O)[C@H](CCC(N)=O)NC(=O)CNC(=O)[C@@H]1CCCN1C(=O)[C@@H](NC(C)=O)C(C)C)C(=O)N[C@@H](CC(=O)O)C(=O)N[C@@H](CCCCNC(=S)Nc1ccc2c(c1)C(=O)OC21c2ccc(O)cc2Oc2cc(O)ccc21)C(N)=O` [Compound S27] (Ac-VPGQFDD[Abu]DK(FITC)-NH2), the Kd was over 1000 nM.

Turning to `CC(=O)N[C@H](C(=O)N1CCC[C@H]1C(=O)NCC(=O)N[C@@H](CCC(N)=O)C(=O)N(C)[C@@H](Cc1ccccc1)C(=O)N[C@@H](CC(=O)O)C(=O)N[C@@H](CC(=O)O)C(=O)N[C@@H](C)C(=O)N[C@@H](CC(=O)O)C(=O)N[C@@H](CCCCNC(=S)Nc1ccc2c(c1)C(=O)OC21c2ccc(O)cc2Oc2cc(O)ccc21)C(N)=O)C(C)C` [Compound 47, Ac-VPGQ-(N-Me)F-DDADK(Fitc)-NH2] (Ac-VPGQ[NMeF]DDADK(FITC)-NH2), the equilibrium dissociation constant (Kd) was over 2000 nM.

For the compound `CCC[C@H](NC(=O)[C@H](CC(=O)O)NC(=O)[C@H](CC(=O)O)NC(=O)[C@H](Cc1ccccc1)NC(=O)[C@H](CCC(N)=O)NC(=O)CNC(=O)[C@@H]1CCCN1C(=O)[C@@H](NC(C)=O)C(C)C)C(=O)N[C@@H](CC(=O)O)C(=O)N[C@@H](CCCCNC(=S)Nc1ccc2c(c1)C(=O)OC21c2ccc(O)cc2Oc2cc(O)ccc21)C(N)=O` [Compound S28] (Ac-VPGQFDD[Nva]DK(FITC)-NH2), the Kd is over 1000 nM.

As to `CC(=O)N[C@H](C(=O)N1CCC[C@H]1C(=O)N[C@@H]1CCCCC[C@H](C(=O)N[C@@H](CC(=O)O)C(=O)N[C@@H](C)C(=O)N[C@@H](CC(=O)O)C(=O)N[C@@H](CCCCNC(=S)Nc2ccc3c(c2)C(=O)OC32c3ccc(O)cc3Oc3cc(O)ccc32)C(N)=O)NC(=O)[C@H](Cc2ccccc2)NC(=O)[C@H](CCC(N)=O)NC1=O)C(C)C` [Compound 26], the Kd is over 2000 nM.

As for `CC(C)[C@H](NC(=O)[C@H](CCCNC(=N)N)NC(=O)[C@H](CO)NC(=O)COCCOCCNC(=S)Nc1ccc2c(c1)C(=O)OC21c2ccc(O)cc2Oc2cc(O)ccc21)C(=O)N[C@H](C(=O)N1CCC[C@H]1C(=O)NC1CNC(=O)CC[C@@H](C(=O)N[C@@H](CC(=O)O)C(=O)N[C@@H](C)C(=O)N[C@@H](CC(=O)O)C(N)=O)NC(=O)[C@H](Cc2ccccc2)NC(=O)[C@H](CCC(N)=O)NC1=O)C(C)C` (stereo in doubt) [Compound 6], the Kd is over 2000 nM.

One may read the Kd as the free concentration of one partner at which half of the binding sites on the other are occupied at equilibrium, for simple one-to-one binding.

The record behind these values is article PMC9706563, “Development of Macrocyclic PRMT5–Adaptor Protein Interaction Inhibitors” (Journal of Medicinal Chemistry, 2022).
